Values joined by “and” are separate entries in the source; they are usually repeats but may differ in a detail not shown here. Equal values may be shown once.
Molecular target: T1, PfCRT^Dd2_F145I (Plasmodium falciparum, UniProt Q8IBZ9, A220S/F145I/I356T/K76T/M74I/N326S/N75E/Q271E/R371I)
T1 construct: expressed in transfected cells; host or cells: Xenopus laevis oocytes injected with in vitro transcribed RNA (pSP64T)
T1 sequence (Q8IBZ9 1-424 M74I/N75E/K76T/F145I/A220S/Q271E/N326S/I356T/R371I): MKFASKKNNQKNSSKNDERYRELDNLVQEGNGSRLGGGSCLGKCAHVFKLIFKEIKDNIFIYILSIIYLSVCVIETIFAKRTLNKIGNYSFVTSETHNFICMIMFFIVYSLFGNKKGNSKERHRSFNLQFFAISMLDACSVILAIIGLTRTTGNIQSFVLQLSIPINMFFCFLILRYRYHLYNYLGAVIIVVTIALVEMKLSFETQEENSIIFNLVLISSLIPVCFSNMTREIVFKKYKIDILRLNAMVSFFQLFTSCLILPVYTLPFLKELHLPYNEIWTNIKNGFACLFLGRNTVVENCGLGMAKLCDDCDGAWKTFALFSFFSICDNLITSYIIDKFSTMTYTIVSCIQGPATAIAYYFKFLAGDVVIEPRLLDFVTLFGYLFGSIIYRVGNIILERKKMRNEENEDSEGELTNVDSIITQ
Assay: Radiolabeled drug uptake in X. laevis oocytes expressing PfCRT^Dd2_F145I
Format: cell-based
Excerpt: The two kinetic parameters were derived by fitting the Michaelis-Menten equation to the kinetic data (Table 1).
A codon-optimized coding sequence of the Dd2 isoform of PfCRT (PfCRT^Dd2) was subcloned into the pSP64T expression vector [21]. To generate the necessary mutations to introduce the amino acid substitutions H97Y, F145I, M343L or G353V into the pfcrt sequence, the overlap extension method was used. A region from the 5’-untranslated Xenopus β-globin sequence to the respective 3’ region, containing the full length pfcrt coding sequence, was amplified using the following primer pairs: for the H97Y mutation, numbers 1/4 and 2/3; for the F145I mutation, numbers 1/6 and 2/5; for the M343L mutation, numbers 1/8 and 2/7; and for the G353V mutation, numbers 1/10 and 2/9 (for primers, see S2 Table). Both PCR products were used as template for amplification of the final product using primers number 1/2. The resulting fragment was cloned into the pSP64T expression vector, and the presence of the desired mutation was confirmed by sequencing.
Adult female X. laevis frogs (purchased from NASCO) were anesthetized by submersion in a solution of 0.3% (w/v) 3-amino benzoate methanesulfonate for 15 min. Sections of the ovary were surgically removed and placed in Ca^2+-free ND96 buffer supplemented with 0.1% collagenase D (w/v; Roche), 0.5% BSA (w/v) and 9 mM Na2HPO4 at 18°C for 14–16 h while gently shaking. The oocytes were then washed several times with ND96 buffer (5 mM HEPES, pH 7.5, 96 mM NaCl, 2 mM KCl, 1.8 mM CaCl2, 1 mM MgCl2), supplemented with […] gentamycin. Healthy-looking stage V-VI oocytes were manually selected and randomly grouped for injection. A codon-optimized coding sequence of PfCRT was subcloned into the pSP64T expression vector and subsequently linearized using the restriction endonuclease BamHI or SalI (New England Biolabs GmbH). RNA for injection was transcribed in vitro using the mMESSAGE mMACHINE SP6 Transcription kit (Ambion), diluted with nuclease-free water to a final concentration of 0.6 μg/μL and stored at -80°C. RNA was injected using precision-bore glass capillary tubes (3.5-inch glass capillaries; Drummond Scientific Co.), which were pulled on a vertical puller (P-87 Flaming/Brown micropipette puller, Sutter Instrument Co.) and graduated. The micropipettes were connected to a microinjector (Nanoject II Auto-Nanoliter Injector, Drummond Scientific Co.). Injection was conducted under stereomicroscopic control. 50 nL of nuclease-free water alone (control oocytes) or 50 nL of nuclease-free water containing 30 ng of RNA was injected per oocyte. Injected oocytes were kept for 72 h at 18°C in ND96 buffer with two daily buffer changes before being used for further experiments.
Drug transport assays were performed as previously described. Briefly, measurements of radiolabeled drug uptake were made over 1 h, unless otherwise specified. […] Where specified, one or more unlabeled drugs were also present at the indicated concentrations. […] The uptake assays were terminated by removing the oocytes from the reaction medium and washing them three times with 2 mL of ice-cold ND96 buffer. Each oocyte was transferred to a separate scintillation vial and lysed by the addition of 200 μL of a 5% SDS solution. The radioactivity in the sample was measured using a liquid scintillation analyser Tri-Carb 4910 TR (PerkinElmer). Water-injected oocytes were analyzed in parallel as a negative control. The buffer from each condition was measured in duplicate in parallel to each experiment to transform counts per minute into pmol of drug. Drug uptake attributable to PfCRT was determined by subtracting the background uptake from water-injected oocytes from that of PfCRT-expressing oocytes.

[1] = 50 μM PPQ, pH 6.0, total uptake, one value per biological replicate
[2] = 50 μM PPQ, pH 6.0, water-injected uptake subtracted, per replicate
[3] = 60 min, pH 6, per biological replicate

Structure (SMILES): Clc1ccc2c(N3CCN(CCCN4CCN(c5ccnc6cc(Cl)ccc56)CC4)CC3)ccnc2c1 [PPQ, piperaquine]
- PfCRTDd2_F145I-mediated PPQ uptake at 10 µM PPQ (10 µM PPQ, single replicates): 11.21 pmol oocyte-1 h-1 and 11.88 pmol oocyte-1 h-1 and 9.04 pmol oocyte-1 h-1
- PfCRTDd2_F145I PPQ uptake at 10 min [1]: 41.61 pmol oocyte-1 and 17.68 pmol oocyte-1 and 66.82 pmol oocyte-1 and 63.70 pmol oocyte-1 and 39.93 pmol oocyte-1
- PfCRTDd2_F145I PPQ uptake at 30 min [1]: 65.21 pmol oocyte-1 and 116.16 pmol oocyte-1 and 126.02 pmol oocyte-1
- PfCRTDd2_F145I PPQ uptake at 60 min [1]: 236.23 pmol oocyte-1 and 329.69 pmol oocyte-1 and 256.17 pmol oocyte-1 and 126.53 pmol oocyte-1 and 203.02 pmol oocyte-1 and 85.96 pmol oocyte-1 and 54.49 pmol oocyte-1 and 109.72 pmol oocyte-1 and 205.44 pmol oocyte-1 and 121.75 pmol oocyte-1 and 41.63 pmol oocyte-1
- PfCRTDd2_F145I PPQ uptake at 90 min [1]: 231.09 pmol oocyte-1 and 187.07 pmol oocyte-1 and 164.98 pmol oocyte-1 and 158.85 pmol oocyte-1
- PfCRTDd2_F145I PPQ uptake at 120 min [1]: 355.30 pmol oocyte-1 and 204.11 pmol oocyte-1 and 281.88 pmol oocyte-1 and 284.17 pmol oocyte-1 and 64.48 pmol oocyte-1 and 488.71 pmol oocyte-1
- PfCRTDd2_F145I PPQ uptake at 180 min [1]: 182.19 pmol oocyte-1 and 278.77 pmol oocyte-1 and 329.69 pmol oocyte-1 and 378.75 pmol oocyte-1
- PfCRTDd2_F145I-mediated PPQ uptake at 10 min [2]: 21.57 pmol oocyte-1 and 6.53 pmol oocyte-1 and 19.62 pmol oocyte-1 and 21.70 pmol oocyte-1 and 15.89 pmol oocyte-1
- PfCRTDd2_F145I-mediated PPQ uptake at 30 min [2]: 25.28 pmol oocyte-1 and 34.52 pmol oocyte-1 and 15.41 pmol oocyte-1
- PfCRTDd2_F145I-mediated PPQ uptake at 60 min [2]: 39.58 pmol oocyte-1 and 153.01 pmol oocyte-1 and 36.72 pmol oocyte-1 and 18.65 pmol oocyte-1 and 19.44 pmol oocyte-1 and 16.68 pmol oocyte-1 and 27.82 pmol oocyte-1 and 75.44 pmol oocyte-1 and 27.59 pmol oocyte-1 and 15.54 pmol oocyte-1 and 75.68 pmol oocyte-1
- PfCRTDd2_F145I-mediated PPQ uptake at 90 min [2]: 89.48 pmol oocyte-1 and 78.18 pmol oocyte-1 and 49.49 pmol oocyte-1 and 48.14 pmol oocyte-1
- PfCRTDd2_F145I-mediated PPQ uptake at 120 min [2]: 115.65 pmol oocyte-1 and 103.98 pmol oocyte-1 and 53.31 pmol oocyte-1 and 32.06 pmol oocyte-1 and 52.11 pmol oocyte-1 and 114.20 pmol oocyte-1
- PfCRTDd2_F145I-mediated PPQ uptake at 180 min [2]: 46.86 pmol oocyte-1 and 115.74 pmol oocyte-1 and 109.59 pmol oocyte-1 and 113.43 pmol oocyte-1
- PfCRTDd2_F145I-mediated PPQ uptake at 50 µM PPQ (50 µM PPQ, single replicates): 27.82 pmol oocyte-1 h-1 and 75.44 pmol oocyte-1 h-1 and 27.59 pmol oocyte-1 h-1 and 75.68 pmol oocyte-1 h-1 and 39.58 pmol oocyte-1 h-1 and 36.72 pmol oocyte-1 h-1 and 42.92 pmol oocyte-1 h-1
- PfCRTDd2_F145I-mediated PPQ uptake at 100 µM PPQ (100 µM PPQ, single replicates): 60.49 pmol oocyte-1 h-1 and 74.22 pmol oocyte-1 h-1 and 87.33 pmol oocyte-1 h-1 and 56.31 pmol oocyte-1 h-1
- PfCRTDd2_F145I-mediated PPQ uptake at 200 µM PPQ (200 µM PPQ, single replicates): 98.82 pmol oocyte-1 h-1 and 131.61 pmol oocyte-1 h-1 and 62.02 pmol oocyte-1 h-1 and 88.46 pmol oocyte-1 h-1
- PfCRTDd2_F145I-mediated PPQ uptake at 300 µM PPQ (300 µM PPQ, single replicates): 115.45 pmol oocyte-1 h-1 and 117.23 pmol oocyte-1 h-1 and 91.14 pmol oocyte-1 h-1
- PfCRTDd2_F145I-mediated PPQ uptake at 400 µM PPQ (400 µM PPQ, single replicates): 130.32 pmol oocyte-1 h-1 and 101.99 pmol oocyte-1 h-1 and 105.11 pmol oocyte-1 h-1
- PfCRTDd2_F145I-mediated PPQ uptake at 500 µM PPQ (500 µM PPQ, single replicates): 124.15 pmol oocyte-1 h-1 and 149.83 pmol oocyte-1 h-1 and 96.18 pmol oocyte-1 h-1
- PfCRTDd2_F145I-mediated PPQ uptake at 10 µM PPQ [3]: 11.21 pmol oocyte-1 h-1 and 11.88 pmol oocyte-1 h-1 and 9.04 pmol oocyte-1 h-1
- PfCRTDd2_F145I-mediated PPQ uptake at 50 µM PPQ [3]: 39.58 pmol oocyte-1 h-1 and 36.72 pmol oocyte-1 h-1 and 42.92 pmol oocyte-1 h-1 and 27.82 pmol oocyte-1 h-1 and 75.44 pmol oocyte-1 h-1 and 27.59 pmol oocyte-1 h-1 and 75.68 pmol oocyte-1 h-1
- PfCRTDd2_F145I-mediated PPQ uptake at 100 µM PPQ [3]: 60.49 pmol oocyte-1 h-1 and 74.22 pmol oocyte-1 h-1 and 87.33 pmol oocyte-1 h-1 and 56.31 pmol oocyte-1 h-1
- PfCRTDd2_F145I-mediated PPQ uptake at 200 µM PPQ [3]: 98.82 pmol oocyte-1 h-1 and 131.61 pmol oocyte-1 h-1 and 62.02 pmol oocyte-1 h-1 and 88.46 pmol oocyte-1 h-1
- PfCRTDd2_F145I-mediated PPQ uptake at 300 µM PPQ [3]: 115.45 pmol oocyte-1 h-1 and 117.23 pmol oocyte-1 h-1 and 91.14 pmol oocyte-1 h-1
- PfCRTDd2_F145I-mediated PPQ uptake at 400 µM PPQ [3]: 130.32 pmol oocyte-1 h-1 and 101.99 pmol oocyte-1 h-1 and 105.11 pmol oocyte-1 h-1
- PfCRTDd2_F145I-mediated PPQ uptake at 500 µM PPQ [3]: 124.15 pmol oocyte-1 h-1 and 149.83 pmol oocyte-1 h-1 and 96.18 pmol oocyte-1 h-1
- Km (Michaelis-Menten fit, 10-500 μM drug, 60 min, pH 6, read-out: KM, Michaelis constant): 115 ± 7 µM
- increase of Vmax by the F145I substitution (versus PfCRT^Dd2): 14%
